In paper PMC4286029 (Inflammation Research, 2014):

Assays:
[1] = test system: rat collagen-induced arthritis model; assay: Collagen-induced arthritis in rats; type: in vivo, Lewis rats
Procedure: CIA was induced in rats as previously described with some modifications. Briefly, type II collagen (Collagen Research Center, Saitama, Japan) was dissolved in 0.01 M acetic acid at 2 mg/mL, and the solution was emulsified in an equal volume of Freund’s incomplete adjuvant (Difco Laboratories, Detroit, MI). Lewis rats were immunized with 1 mL of the emulsion (1 mg of type II collagen) via ten intradermal injections on the back under anesthesia. The rats were then challenged with 0.2 mL of the emulsion injected into the base of the tail on day 8 under anesthesia. The test drugs were given orally once daily from day 1 to day 21 (preventive administration) or from day 15 to day 28 (therapeutic administration). After arthritis induction, the hind paw volume was measured by a water displacement method using a plethysmometer (Muromachi Kikai Co. Ltd., Tokyo, Japan). On day 22 or day 29, the rats were euthanized, and their hind paws were excised and X-rayed or processed for histological evaluation. Radiographs of the right hindlimbs were taken using a microfocal cone-beam X-ray CT scanner (MCT-CB100MF; Hitachi Medical Corporation, Tokyo, Japan). The severity of bone destruction was scored on a 3-point scale ranging from 0 to 2 for the following five joints: second metatarsal—second intertarsal joint, third metatarsal—third intertarsal joint, talus—central intertarsal joint, calcaneus—fourth intertarsal joint, and astragalo—tibial joint. For histological analysis, the formalin-fixed left hindlimbs were sectioned and stained with hematoxylin and eosin. The histology of the tarsal joints was evaluated by assessing the following parameters defined in the preliminary examination: inflammatory cell infiltration, synovial cell hyperplasia, cartilage destruction, and bone destruction. The severity of each histological change was scored on a 5-point scale ranging from 0 to 4. (Score 0: normal; Score 1: minimal, solitary (and very small) lesion; Score 2: slight, focal (and small) lesion; Score 3: moderate, scattered lesion; and Score 4: severe, extensive lesion).
(§1) . The hind paw volume (a) and body weight (b) were measured periodically. Images of hematoxylin and eosin staining (c) and radiographs of hindlimbs (e) are shown. Histological change (d) and radiographical change (f) were scored. The results are expressed as mean ± SD. ^# p < 0.05, ^## p < 0.01, versus vehicle by the Steel test
as §1, with “SD. *p < 0.05, **p < 0.01, versus vehicle by Dunnett’s test.” for “SD.”

SAPK2a = target: T1, SAPK2a (Homo sapiens, UniProt Q16539); assay: KinaseProfiler selectivity: SAPK2a; type: biochemical
T1 construct: purchased Millipore Co. Ltd. (KinaseProfiler service)
Procedure: […]; The selectivity of JTE-052 for other kinases was assessed using KinaseProfiler™ (Millipore Co. Ltd.). […].

T1 sequence (Q16539 whole entry, species assumed): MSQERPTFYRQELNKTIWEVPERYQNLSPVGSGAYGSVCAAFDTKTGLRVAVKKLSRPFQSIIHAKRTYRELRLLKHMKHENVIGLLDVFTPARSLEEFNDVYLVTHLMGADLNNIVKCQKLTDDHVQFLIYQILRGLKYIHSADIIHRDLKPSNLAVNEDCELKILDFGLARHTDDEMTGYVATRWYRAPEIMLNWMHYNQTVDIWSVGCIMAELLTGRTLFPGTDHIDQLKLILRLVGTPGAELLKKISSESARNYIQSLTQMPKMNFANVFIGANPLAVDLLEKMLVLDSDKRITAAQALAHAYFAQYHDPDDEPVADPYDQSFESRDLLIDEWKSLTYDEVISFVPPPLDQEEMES

C[C@H]1CN(C(=O)CC#N)[C@]12CCN(c1ncnc3[nH]ccc13)C2 [JTE-052]
effect on bone and cartilage destruction (radiographic, histological), preventive administration ([1]; oral once daily from day 1): inhibited radiographic and histological changes of bone destruction and cartilage destruction
effect on hind paw swelling and joint inflammation, preventive administration ([1]; oral once daily from day 1, JTE-052 0.1, 1, 10 mg/kg, MTX 0.3 mg/kg): prevented the development of hind paw swelling
IC50 (SAPK2a): > 1000 nM
